Article PMC5702947, “A Study on Cytotoxic and Apoptotic Potential of a Triterpenoid Saponin (3-O-α-L-Arabinosyl Oleanolic Acid) Isolated from Schumacheria castaneifolia Vahl in Human Non-Small-Cell Lung Cancer (NCI-H292) Cells” (BioMed Research International, 2017)

Key:
NCI-H292 cells [1] = assay: Sulforhodamine B (SRB) cytotoxicity assay in NCI-H292 cells; type: cell-based; conditions: Homo sapiens
Protocol: (§1) Sulphorhodamine B (SRB) assay was used to dertmine cytotoxic effects of the compound (3-O-L-AO) in NCI-H292 and MRC-5 cells. Cells (5 × 10^3/well) were seeded in 96-well tissue culture plates and incubated for 24 h. After 24 h incubation, cells were treated with 3-O-L-AO (0.78–25 μg/mL) and incubated for 24, 48, and 72 h. Paclitaxel (0.47–15 μg/mL) was used as the positive control. Cells were washed with PBS for three times and then fixed by adding 50% trichloroacetic acid (TCA) to each well followed by washing five times with tap water. After fixing, cells were stained with 0.4% SRB dye for 20 min followed by washing five times with 1% acetic acid. Tris-base (10 mM) was then added to each well and plates were kept on a plate shaker for 1 h at room temperature. The absorbance was measured using a microplate reader (Synergy HT, USA) at wavelength of 540 nm.

MRC-5 cells [2] = assay: Sulforhodamine B (SRB) cytotoxicity assay in MRC-5 cells; type: cell-based; conditions: Homo sapiens
Protocol: as §1

p53 gene = assay: Quantitative real-time PCR, p53 gene expression in NCI-H292 cells; type: cell-based, human; conditions: 24 h
Protocol: (§2) NCI-H292 cells (2 × 10^5 cells/mL) grown in T-25 tissue culture flasks were treated with 3-O-L-AO (1 and 2 μg/mL) and incubated for another 24 h. TRIzol reagent was used to extract RNA as described by Ediriweera et al., 2016 [13]. Extracted RNA (2 μg) was incubated with 50 ng of random primers and 13.5 μL of PCR water for 5 min at 70°C. cDNA synthesis was then carried out after mixing with a maxter mix containing 5 μL MMLV (Moloney Murine Leukemia Virus Reverse Transcriptase) reaction buffer, 5 μL 10 mM dNTP mix, 25 units of RNasin, and 200 units of MMLV RT enzyme, following incubation at 37°C for 60 min, in a total volume of 25 μL. Stratagene Mx3000P real-time PCR system (Agilent Technologies, CA, USA) was used to carry out real-time PCR. Primers used have been previously described. For real-time PCR, 2 μL of cDNA was mixed with Master Mix containing 0.5 μL of forward and reverses primers, 12.5 μL SYBR Green Master Mix (Eurogentec, Seraing, Liège, Belgium), and 9.5 μL PCR water. The thermal cycle programme set for real-time PCR include stage 1, 95°C for 10 min and stage two consisting of three steps: denaturation at 95°C for 30 s, annealing at 56°C for 1 min, and extension at 72°C for 30 s and stage 2 was repeated for 40 cycles. […] Gene expression was quantified using the method described by Livak and Schmittgen, 2001 [14].

[3] = tested on: reactive oxygen species (ROS); assay: Reactive oxygen species (ROS) level, NBT assay in NCI-H292 cells; type: cell-based, human; conditions: NCI-H292 cells, 0.5, 1 and 2 μg/mL (all three doses), 24 h, dose dependant
Protocol: (§3) Evaluation of oxidative stress markers (reactive oxygen species (ROS), glutathione-S-transferase (GST), and glutathione (GSH)) after exposure to 3-O-L-AO in NCI-H292 cells was determined as previously described by us.
NCI-H292 cells (20,000 cells/well) were plated in 96-well cell plates and incubated for 24 h. Following incubation, cells were treated with 3-O-L-AO (0.5, 1, and 2 μg/mL) and incubated for 24 h. Nitro Blue Tetrazolium (NBT) solution (1 mg/mL, 20 μL) was then added to each well and incubated for 1 h at 37°C. Blue formazan formed was then solubalized after adding 100 μL of dimethyl sulfoxide (DMSO) and the absorbance was read at 620 nm.

survivin gene = assay: Quantitative real-time PCR, survivin gene expression in NCI-H292 cells; type: cell-based, human; conditions: 1 and 2 μg/mL (both doses), 24 h, downregulation not significant
Protocol: as §2

Staphylococcus aureus = tested on: Staphylococcus aureus; design: method as in earlier work; conditions: cited from earlier work
Bax gene = assay: Quantitative real-time PCR, Bax gene expression in NCI-H292 cells; type: cell-based, human; conditions: 1 and 2 μg/mL (both doses), 24 h
Protocol: as §2

NCI-H292 cells [4] = assay: AO/EB staining, apoptosis related morphology under fluorescence microscopy; type: cell-based, human; conditions: NCI-H292 cells, 2.5, 5 and 10 μg/mL, 24 h
Protocol: NCI-H292 lung cancer cells (2 × 10^4 cells/well) cultured on coverslips were treated with 3-O-L-AO (2.5, 5, and 10 μg/mL) for 24 h. After incubation, cells were washed with phosphate buffer saline (PBS) and fixed with 4% formaldehyde for 15 min. Fixed cells were again washed with PBS and stained with acridine orange/ethidium bromide as previously described by us. Stained cells were observed under a fluorescence microscope (Olympus, BX51TRF, Japan).

caspase 3/7 = assay: Caspase-Glo 3/7 activity assay in NCI-H292 cells; type: cell-based, human; conditions: NCI-H292 cells, 0.5, 1 and 2 μg/mL (all three doses), 24 h
Protocol: Caspase 3/7 activity in NCI-H292 cells was measured using the Caspase-Glo 3/7 assay kit according to manufacturer's protocol. Prior to the assay, NCI-H292 cells were treated with three doses of 3-O-L-AO (0.5, 1, and 2 μg/mL) and incubated for 24 h.

glutathione (GSH) = assay: Glutathione (GSH) levels in NCI-H292 cells; type: cell-based, human; conditions: NCI-H292 cells, 0.5, 1 and 2 μg/mL (all three doses), 24 h, p < 0.0001
Protocol: as §3
NCI-H292 cells were (1 × 10^5 cells/well) exposed to 3-O-L-AO (0.5, 1, and 2 μg/mL) for 24 h. After incubation, cells were collected by trypsinization. Collected cell pellets were mixed with ice-cold KCl (2 mL) and 0.5 M EDTA (1 mL) and sonicated for […]. Cell lysate was then centrifuged at 10,000 g for 15 min to obtain a clear supernatant and it was kept on ice throughout the experiments. Supernatent (75 μL) was mixed with 75 μL of 5% sulfosalicylic acid, 20 μL of 4% DTNB [5,5-dithiobis-(2-nitrobenzoic acid)], and 30 μL of 0.1 M potassium phosphate buffer (pH 8.0) and incubated for 30 min. Absorbance was then recorded at 412 nm and glutathione levels were calculated as nM/mg of cell lysate protein with the help of a GSH standard curve.

Escherichia coli = tested on: Escherichia coli; design: method as in earlier work; conditions: cited from earlier work
MRC-5 cells [5] = assay: Cytomorphological changes under phase-contrast microscope, MRC-5 cells; type: cell-based, human; conditions: MRC-5 cells, 1.5, 6.25 and 12.5 μg/mL, 24, 48, 72 h, phase-contrast images
Text: (§4) Morphological changes of lung cancer cells (NCI-H292) and normal fibroblasts (MRC-5) cells after exposure to 3-O-L-AO were captured using inverted phase-contrast microscope (Olympus CKX41, Japan).

NCI-H292 cells [6] = assay: Cytomorphological changes under phase-contrast microscope, NCI-H292 cells; type: cell-based, human; conditions: NCI-H292 cells, 1.5, 6.25 and 12.5 μg/mL, 24, 48, 72 h, phase-contrast images
Text: as §4

[7] = tested on: glutathione-S-transferase (GST); assay: Glutathione-S-transferase (GST) activity in NCI-H292 cell lysates; type: cell-based, human; conditions: NCI-H292 cells, 0.5, 1 and 2 μg/mL (all three doses), 24 h, p < 0.05 to p < 0.0001
Protocol: as §3
An aliquot of cell lysates prepared for GSH assays was used to analyse GST activity. Glutathione and CDNB (1-chloro-2,4-dinitrobenzene) were served as substrates in this assay. A mixture was prepared by mixing 490 μL of PBS (pH 6.5), 5 μL of CDNB (100 mM), and 5 μL of GSH (100 mM); 180 μL of this mixture was mixed with 20 μL of cell lysate and incubated for 5 min at 37°C. Absorbance was recoreded at 340 nm for 5 min (1-minute time intervals). Quantity of GST catalyzing the oxidation of 1 millimole of 1-chloro-2,4-dinitrobenzene per minute at 37°C was considerd as one unit of GST activity.

Row | Compound | IC50 (NCI-H292 cells [1]; 24 h incubation) | IC50 (NCI-H292 cells [1]; 48 h incubation) | IC50 (NCI-H292 cells [1]; 72 h incubation) | IC50 (MRC-5 cells [2]; MRC5, 24 h incubation) | IC50 (MRC-5 cells [2]; MRC5, 48 h incubation) | IC50 (MRC-5 cells [2]; MRC5, 72 h incubation) | p53 gene expression (p53 gene; 1 μg/mL) | p53 gene expression (p53 gene; 2 μg/mL) | Reactive oxygen species (ROS) level [3] | survivin gene expression (survivin gene) | Antibacterial effects against Staphylococcus aureus (Staphylococcus aureus) | Bax gene expression (Bax gene) | Apoptotic induction (AO/EB staining) (NCI-H292 cells [4]) | Caspase 3/7 activity compared to untreated control (caspase 3/7) | GSH levels (glutathione (GSH)) | Antibacterial effects against Escherichia coli (Escherichia coli) | Cytomorphological changes of normal lung fibroblast cells (MRC-5 cells [5]) | Cytomorphological changes of lung cancer cells (NCI-H292 cells [6]) | GST levels (activity) [7]
1 | CC(=O)O[C@H]1C(=O)[C@@]2(C)[C@H]([C@H](OC(=O)c3ccccc3)[C@]3(O)C[C@H](OC(=O)[C@H](O)[C@@H](NC(=O)c4ccccc4)c4ccccc4)C(C)=C1C3(C)C)[C@]1(OC(C)=O)CO[C@@H]1C[C@@H]2O [Paclitaxel, reference compound] | 8.37 µg/mL | 3.28 µg/mL | 1.59 µg/mL | 1.51 µg/mL | 0.96 µg/mL | 0.35 µg/mL |  |  |  |  |  |  |  |  |  |  |  |  | 
2 | CC1(C)CCC2(C(=O)O)CCC3(C)C(=CCC4C5(C)CCC(OC6OCC(O)C(O)C6O)C(C)(C)C5CCC43C)C2C1 [3-O-L-AO, 3-O-α-L-arabinosyl oleanolic acid] | 4.33 µg/mL | 2.69 µg/mL | 1.5 µg/mL | 5.4 µg/mL | 4.59 µg/mL | 2.83 µg/mL | upregulation | significant (p < 0.05) upregulation | significantly (p < 0.05 to p < 0.0001) increased | downregulation | Moderate antibacterial effects | Significant (p < 0.001 and p < 0.0001) upregulation | dose dependent apoptotic induction | Significant (p < 0.0001) increase | Significant reduction | Moderate antibacterial effects | decreased cell volume and rounding up cells | decreased cell volume and rounding up cells | increase
